Results published in PubChem BioAssay (NCI).
Several values for one entry are separate records, joined by “and”; a condition that tells them apart may be missing. Equal entries are not always repeated.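 Dose response: 5 concentrations. Exposure: 48 h. Format: 96-well plates. Endpoint: linear interpolation; highest concentration if not reached. GI50 marks 50% less growth. The concentration for full growth arrest is given as TGI.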

Key:
Assay in all cases: NCI anticancer screen, dose series, 48 h
HCC-2998 colon = system: HCC-2998 colon
SK-MEL-28 melanoma = system: SK-MEL-28 melanoma
OVCAR-3 ovarian = system: OVCAR-3 ovarian
A498 renal = system: A498 renal
OVCAR-5 ovarian = system: OVCAR-5 ovarian
A549 NSCLC = system: A549 NSCLC
SF-295 CNS = system: SF-295 CNS
MALME-3M melanoma = system: MALME-3M melanoma
MOLT-4 leukemia = system: MOLT-4 leukemia
M14 melanoma = system: M14 melanoma

SMILES | TGI (HCC-2998 colon) | TGI (SK-MEL-28 melanoma) | TGI (OVCAR-3 ovarian) | TGI (A498 renal) | TGI (OVCAR-5 ovarian) | TGI (A549 NSCLC) [µM] | TGI (SF-295 CNS) [µM] | TGI (MALME-3M melanoma) | TGI (MOLT-4 leukemia) | TGI (M14 melanoma) | GI50 (OVCAR-5 ovarian) | GI50 (MOLT-4 leukemia) | GI50 (OVCAR-3 ovarian) | GI50 (SK-MEL-28 melanoma) [µM] | GI50 (A498 renal) [µM] | GI50 (A549 NSCLC) [µM]
COC(=O)NN(C(=O)OC)c1c(-c2ccccc2)nc(SC)n1N | > 100 µM | > 100 µM | > 100 µM | > 100 µM | > 100 µM | > 100 | > 100 | > 100 µM | > 100 µM | > 100 µM | – | – | – | – | – | –
C=C1[C@@H](O)C[C@@]23CC[C@@H]4[C@@]5(C)CC[C@@H](OC(C)=O)C(C)(C)[C@@H]5C[C@@H](OC5OC(COC(C)=O)C(O)C(O)C5O)[C@@]4(C)C2=CC[C@H]3[C@H]1C (some centres undefined) | 3.88 µM | 19.8 µM | 16.2 µM | 23.8 µM | 7.08 µM | 16.8 | 14.8 | 23.9 µM | 8.32 µM | 16.4 µM | – | – | – | – | – | –
COc1cc2c(cc1OC)C1c3ccccc3CCN1CC2 (centres undefined) | > 100 µM | > 100 µM | > 100 µM | > 100 µM | > 100 µM | > 100 | > 100 | > 100 µM | > 100 µM | > 100 µM | – | – | – | – | – | –
C=C1C(=O)OC2/C=C(\CO)C(OC(C)=O)CC(O)/C(C)=C/C(OC(=O)C(C)CC)C12 (centres undefined) | 52.7 µM and 30.4 µM | 32.3 µM and 70.1 µM | 33.4 µM and 30.6 µM | 91.9 µM and 88.7 µM | > 92.8 µM and 32.2 µM | > 100 | > 100 | 31.2 µM and 32 µM | 28.2 µM and 64.3 µM | 31.1 µM and 33.3 µM | 38.9 µM and 17 µM | 11 µM and 22.6 µM | – | – | – | –
CC1(C)O[C@@H]2COC(=O)[C@@H]2O1 | > 100 µM | > 100 µM | > 100 µM | > 100 µM | > 100 µM | > 100 | > 100 | > 100 µM | > 100 µM | > 100 µM | – | – | – | – | – | –
CC(=O)N/N=C1/NN(C(C)=O)C2(S1)C(=O)Nc1ccc(Br)cc12 (centres undefined) | > 100 µM | > 100 µM | > 100 µM | > 100 µM | > 100 µM | > 100 | > 100 | > 100 µM | > 100 µM | > 100 µM | – | – | – | – | – | –
COP(=O)(O)/C=C/C(NC(=O)C(Cl)(Cl)Cl)c1ccccc1 (centres undefined) | > 100 µM | > 100 µM | > 100 µM | > 100 µM | > 100 µM | > 100 | > 100 | > 100 µM | > 100 µM | > 100 µM | – | – | – | – | – | –
C/C(=N/NC(N)=S)c1ccc2ccccc2c1 | 34.9 µM | > 100 µM | > 100 µM | > 100 µM | 86 µM | > 100 | > 100 | > 100 µM | > 100 µM | 79.1 µM | – | – | – | – | – | –
O=C(O)C1CC(c2ccc(F)cc2)=Nc2ccc(F)cc2S1 (centres undefined) | > 100 µM | > 100 µM | > 100 µM | > 100 µM | > 100 µM | > 100 | > 100 | > 100 µM | > 100 µM | > 100 µM | – | – | – | – | – | –
CSC1CC2C(CC1(C)O)C2(C)C (centres undefined) | > 100 µM | > 100 µM | > 100 µM | > 100 µM | > 100 µM | > 100 | – | > 100 µM | > 100 µM | > 100 µM | – | > 100 µM | 38.5 µM and > 100 µM | – | – | –
CC(=O)NS(=O)(=O)c1ccc(NC(=O)c2c3ccccc3nc3ccccc23)cc1 | > 100 µM | > 100 µM | > 100 µM | > 100 µM | > 100 µM | > 100 | > 100 | > 100 µM | > 100 µM | > 100 µM | – | – | – | – | – | –
CCCCn1c2c(n(CCCC)c1=S)-c1c(n(CCCC)c(=S)n1CCCC)S[Se][Se]S2 | 61.6 µM | > 61.4 µM | 7.84 µM | > 100 µM | 6.72 µM | > 88.7 | 30.5 | 5.09 µM | > 37.2 µM | 31.7 µM | – | – | – | – | – | –
Cc1ccc(S(=O)(=O)N2CCSCCSCCSCCSCC2)cc1 | > 100 µM | > 100 µM | 60.7 µM | > 74.2 µM | > 100 µM | > 100 | 39.3 | > 100 µM | > 100 µM | > 100 µM | – | – | – | – | – | –
CCC(C(=O)O)c1ccc(OCc2ccccc2)cc1 (centres undefined) | > 100 µM | > 100 µM | > 100 µM | > 100 µM | > 100 µM | > 100 | > 100 | > 100 µM | > 100 µM | > 100 µM | – | – | – | – | – | –
O=C(NC(Cc1c[nH]c2ccccc12)C(=O)O)/C(=C/c1ccccc1O)NC(=O)c1ccccc1 (centres undefined) | > 100 µM | > 100 µM | – | > 100 µM | > 100 µM | > 100 | 37 | > 100 µM | > 100 µM | > 100 µM | – | – | – | – | – | –
O=[N+]([O-])C(=C(N1CCCCC1)N1CCCCC1)/C(Cl)=C(\Cl)Br | 32.3 µM | 41.4 µM | 81.4 µM | 42.2 µM | – | > 100 | > 100 | 64.9 µM | 57.3 µM | 59.1 µM | – | – | – | – | – | –
CCCCCCCCCC[C@H](O)[C@H]1CC[C@H]([C@H]2CC[C@H]([C@H](O)CC[C@H](O)CCCCCCC[C@@H](O)CC3=C[C@H](C)OC3=O)O2)O1 | > 100 µM | > 100 µM | > 100 µM | > 100 µM | > 100 µM | > 100 | > 100 | > 100 µM | 80.1 µM | > 100 µM | > 100 µM | 19.9 µM | – | > 100 | 89.4 | 7.18
C/C(N=Nc1nc2ccccc2s1)=C1/C=CC=CN1O | 0.0978 µM | > 100 µM | 71.2 µM | > 100 µM | 5.95 µM | > 100 | 3.72 | 57.4 µM | > 100 µM | > 100 µM | – | – | – | – | – | –
Cc1nn(C(=O)Cc2ccccc2)c2c1C(c1ccccc1O)SC(N)=N2 (centres undefined) | > 100 µM | > 100 µM | – | > 100 µM | – | > 100 | > 100 | > 100 µM | > 100 µM | > 100 µM | – | – | – | – | – | –
CC(C)(C)NC(=O)[C@H]1CC[C@H]2[C@@H]3CC=C4NC(=O)CC[C@]4(C)[C@H]3CC[C@]12C | > 100 µM | > 100 µM | > 100 µM | > 100 µM | > 100 µM | > 100 | > 100 | > 100 µM | > 100 µM | > 100 µM | – | – | – | – | – | –
